Results from patent US20230041980A1, “METHOD OF PROTECTING A RESPIRATORY TRACT OR A LUNG FROM DAMAGE, METHOD OF PROTECTING A LUNG FROM PRESSURE DAMAGE INDUCED BY A VENTILATOR, METHOD OF SUPPRESSING SPREAD OF INFECTION WITH VIRUSES OR BACTERIA THAT CAUSE PNEUMONIA IN PULMONARY BRONCHIAL EPITHELIAL CELLS OR ALVEOLAR EPITHELIAL CELLS, AND …” (NEXT21 KABUSHIKI KAISHA, priority 2020, published 2023).

Key:
Asthma model mice [1] = assay: Airway resistance and compliance of OVA asthma model mice; assay type: in vivo, BALB/c mice; conditions: versus amount of muscarine receptor stimulant, inhalation, compared with OVA/OVA; for airway resistance: FIG. 2A; for compliance: FIG. 2B
Protocol: (§1) Asthma model mice were produced using BALB/c mice (8 to 10 weeks old) and ovalbumin (OVA) serving as an antigen, and examinations were conducted by administering trehalose by inhalation. On the first day and the fourteenth day, a physiological saline solution or OVA was intraperitoneally administered. 20 micrograms of OVA was administered to one mouse using aluminum hydroxide as an adjuvant. From the twenty-seventh day to the thirty-first day, 10% trehalose or distilled water was administered by inhalation for 20 minutes every day. Moreover, from the twenty-eighth day to the thirtieth day, a physiological saline solution or 1% OVA was administered by inhalation for 20 minutes, 1 to 1.5 hours after the above-mentioned inhalation. On the thirty-second day, evaluation was conducted using an assay system for evaluating allergic airway inflammation and hyperresponsive airway.
The airway resistance and the compliance of the model mice of Example 1 were measured. […] On the other hand, FIGS. 2A and 2B also show the results of the experiment in which lactose was used instead of trehalose (OVA/OVA+Lac).

Asthma model mice [2] = assay: Numbers of inflammation-inducing cells in bronchoalveolar lavage fluid; assay type: in vivo, BALB/c mice; conditions: inhalation; compared with OVA/OVA; FIG. 4
Protocol: as §1, with “airway. Bronchoalveolar lavage was performed on the model mice of Example 1, and the numbers of various cells obtained through the bronchoalveolar lavage were compared and examined. It should be noted that, in this example, 0.5 mL of a physiological saline solution containing 50 μg of ovalbumin (OVA) and 1 mg of aluminum hydroxide gel serving as an adjuvant was administered to OVA-administration mice (OVA/OVA) […]. […]” for “airway.”

IgE antibody = IgE antibody levels in serum of OVA asthma model mice; assay type: in vivo, BALB/c mice; conditions: 10% trehalose by inhalation 20 min daily, day 27-31, OVA/OVA+Treh vs OVA/OVA, P<0.05
Protocol: as §1, with “airway. FIGS. 1A and 1B show the measurement results of the IgE antibodylevels in the serum. […] Suppressing the production of IgE antibodies makes it possible to suppress an increase in the severity of pulmonary tissue lesion caused by cytokine storm, which is an overreaction of the immune system caused by chemical mediators from mast cells. […]” for “airway.”

[3] = system: alveolar epithelial cells; assay: Pulmonary tissue sections, H.E. and PAS staining, asthma model mice; assay type: in vivo, BALB/c mice; conditions: primary inhalation of trehalose, FIGS. 3A, 3B
Protocol: as §1, with “airway. Pulmonary tissue pathological sections were produced from the model mice of Example 1, and the diseases state was observed through hematoxylin-eosin (H.E.) staining and periodic acid-Schiff (PAS) staining. FIGS. 3A and 3B show the results of H.E. staining and the results of PAS staining, respectively.” for “airway.”

IL-4 = IL-4 level in bronchoalveolar lavage fluid (ELISA); assay type: in vivo, BALB/c mice; conditions: OVA/OVA+Treh vs OVA/OVA, FIG. 5A
Protocol: as §1, with “airway. Bronchoalveolar lavage was performed on the model mice of Example 1, and the numbers of various cells obtained through the bronchoalveolar lavage were compared and examined. […] The cytokine levels in the bronchoalveolar lavage fluids obtained in Example 4 were measured using an ELISA measurement kit. […] It should be noted that interferon (IFN-γ) was not detected from any of the groups. […]” for “airway.”

IL-5 = IL-5 level in bronchoalveolar lavage fluid (ELISA); assay type: in vivo, BALB/c mice; conditions: OVA/OVA+Treh vs OVA/OVA, FIG. 5B
Protocol: as §1, with “airway. Bronchoalveolar lavage was performed on the model mice of Example 1, and the numbers of various cells obtained through the bronchoalveolar lavage were compared and examined. […] The cytokine levels in the bronchoalveolar lavage fluids obtained in Example 4 were measured using an ELISA measurement kit. […] It should be noted that interferon (IFN-γ) was not detected from any of the groups. […]” for “airway.”

IL-13 = IL-13 level in bronchoalveolar lavage fluid (ELISA); assay type: in vivo, BALB/c mice; conditions: OVA/OVA+Treh vs OVA/OVA, FIG. 5C
Protocol: as §1, with “airway. Bronchoalveolar lavage was performed on the model mice of Example 1, and the numbers of various cells obtained through the bronchoalveolar lavage were compared and examined. […] The cytokine levels in the bronchoalveolar lavage fluids obtained in Example 4 were measured using an ELISA measurement kit. […] It should be noted that interferon (IFN-γ) was not detected from any of the groups. […]” for “airway.”

[4] = system: RAW264.7 cells (macrophages); assay: Lipid peroxides (LPO) in cells treated with hemolysate; assay type: cell-based; conditions: 5% trehalose, 10% hemolysate for 3 hours, FIG. 6A
Protocol: (§2) Suppression of PLA2 activation caused by applying hydrogen peroxide stimulus to RAW264.7 cells (macrophages) was measured using [^3H]-AA release assay. FIGS. 6A and 6B show the measurement results showing the influence of trehalose on hemolysate or oxygen free radicals. FIGS. 6A and 6B show the measurement results in the case where a culture medium or hemolysate contains a physiological saline solution (Sal), 5% trehalose (Ire), or 5% maltose (Mal). […] In this experiment, RAW264.7 cells were treated with 10% hemolysate for 3 hours. The hemolysate was prepared as a supernatant by suspending erythrocytes of a Wistar rat in a saline solution, an aqueous solution of trehalose, or an aqueous solution of maltose, sonicating the resulting suspension, and then centrifuging the suspension. The LPO level was measured through a colorimetric analysis using a divalent iron molecule. […] In this experiment, RAW264.7 cells were labeled with [3H] arachidonic acid overnight and then treated with hydrogen peroxide for 3 hours. The level of released arachidonic acid was quantified by measuring the radioactivity of the collected culture medium.

[5] = system: RAW264.7 cells (macrophages); assay: [3H]-arachidonic acid release after hydrogen peroxide stimulus; assay type: cell-based; conditions: 5% trehalose, hydrogen peroxide for 3 hours, FIG. 6B
Protocol: as §2

TNF-α [6] = assay: TNF-α induced by homogenized cell lysate (ELISA); assay type: cell-based; conditions: RAW264.7 cells
IL-1α = IL-1α induced by homogenized cell lysate (ELISA); assay type: cell-based; conditions: lysate homogenized in 10% aqueous trehalose vs saline; RAW264.7 cells, 8 hours; FIG. 7B
prostaglandin E2 = assay: Prostaglandin E2 induced by homogenized cell lysate (EIA); assay type: cell-based; conditions: lysate homogenized in 10% aqueous trehalose vs saline; RAW264.7 cells, 8 hours; FIG. 7C
TGF-β1 = TGF-β1 induced by homogenized cell lysate (ELISA); assay type: cell-based; conditions: lysate homogenized in 10% aqueous trehalose vs saline; RAW264.7 cells, 8 hours; acid-treated medium; FIG. 7D
Protocol: Moreover, RAW264.7 cells cultured in a 225-cm^2 flask were homogenized in a physiological saline solution (saline) or a 10% aqueous solution of trehalose (trehalose) using a homogenizer, and cell lysate was thus prepared. The above-mentioned cell lysate was added to RAW264.7 cells that were being cultured in 6 wells, and the cells were cultured for another 8 hours. Then, the culture medium was collected. The culture medium was treated with acid, and then TGF-β1 in the culture medium was measured using ELISA (manufactured by R&D Systems).
In the above-mentioned tests, the cell lysate obtained through homogenization using a homogenizer was used as a model of cell disruption caused by damage (including a surgical operation).

TNF-α [7] = assay: TNF-α induced by heat-shocked dead cell solution (ELISA); assay type: cell-based; conditions: 10% aqueous trehalose vs saline added to cell solution (53° C. 10 minutes); RAW264.7 cells, 8 hours; FIG. 7E
Protocol: Moreover, RAW264.7 cells cultured in a 225-cm^2 flask were collected, and heat shock was applied to the cells at 53° C. for 10 minutes. Then, the cells were left to stand at 37° C. for 5 hours to induce cell death, and the resulting solution was used as a cell solution. Thereafter, a physiological saline solution (saline) or a 10% aqueous solution of trehalose (trehalose) was added to the cell solution, and the resulting solution was treated on ice for 30 minutes. The above-mentioned cell solution was added to RAW264.7 cells that were being cultured in 6 wells, and the cells were cultured for another 8 hours. Then, TNF-α was measured using ELISA (manufactured by R&D Systems).
In this test, the cell solution including dead cells induced by heat shock was used as a model of cell disruption caused by a burn.

[8] = system: oral epithelial cell line (Ca9-22); assay: LIVE/DEAD assay after drying stimulus; assay type: cell-based; conditions: 7.5% trehalose pretreatment 15 minutes, dried 7 minutes, FIG. 8A
PLA2 = assay: Released [3H]-arachidonic acid after drying stimulus (PLA2 activation); assay type: cell-based; conditions: 7.5% trehalose pretreatment 15 minutes, dried 7 minutes; Ca9-22; FIG. 8B
Protocol: The oral epithelial cell line (Ca9-22) maintained in DMEM-10% FBS was treated with [^3H]-arachidonic acid overnight. Pretreatment with a physiological saline solution (Sal), 7.5% trehalose (Tre), or 7.5% maltose (Mal) was conducted for 15 minutes, and then the cells were dried for 7 minutes. Subsequently, a culture medium was added, and then the cells were cultured for 1 hour.

Compound	airway resistance (Asthma model mice [1])	compliance (Asthma model mice [1])	numbers of inflammation-inducing cells in bronchoalveolar lavage fluid (Total, Mo, Ly, Eo, Nt) (Asthma model mice [2])	total IgE level in serum (IgE antibody; FIG. 1A)	level of IgE specific to the antigen (ovalbumin) in serum (IgE antibody; FIG. 1B)	damage to alveolar epithelial cells (inflammatory cell infiltration, goblet cell hyperplasia) [3]	IL-4 level in bronchoalveolar lavage fluid (IL-4)	IL-5 level in bronchoalveolar lavage fluid (IL-5)	IL-13 level in bronchoalveolar lavage fluid (IL-13)	lipid peroxides (LPO) level [4]	level of released arachidonic acid [5]	dose dependence of suppression of the TNT-α production (TNF-α [6]; cell lysate model)	TNF-α level induced by cell lysate (TNF-α [6]; lysate homogenized in 10% aqueous trehalose vs saline, 8 hours, FIG. 7A)	IL-1α level induced by cell lysate (IL-1α)	prostaglandin E2 level induced by cell lysate (prostaglandin E2)	TGF-β1 level induced by cell lysate (TGF-β1)	TNF-α level induced by heat-shocked cell solution (TNF-α [7])	cell death caused by drying stimulus (LIVE/DEAD assay) [8]	PLA2 activation caused by drying stimulus (released arachidonic acid) (PLA2)
OC[C@H]1O[C@@H](O[C@H]2[C@H](O)[C@@H](O)C(O)O[C@@H]2CO)[C@H](O)[C@@H](O)[C@H]1O (stereo partly shown) [lactose, reference compound]	does not have an action of suppressing an increase in the airway resistance	not different from each other	does not have an action of suppressing the release of inflammation-inducing cells																
OC[C@H]1O[C@H](O[C@H]2O[C@H](CO)[C@@H](O)[C@H](O)[C@H]2O)[C@H](O)[C@@H](O)[C@@H]1O [trehalose]	significantly reduced the airway resistance	significantly increased the compliance	significantly reduced cell release	significantly reduce the production amount of IgE	significantly reduce the production amount of IgE	suppress damage to the alveolar epithelial cells	significantly suppress the expression of cytokines	significantly suppress the expression of cytokines	significantly suppress the expression of cytokines	protecting cells from oxygen free radicals and hemolysate	protecting cells from oxygen free radicals and hemolysate	depends on the dosage of trehalose	significantly reduced	significantly reduced	significantly reduced	significantly reduced	significantly reduced	suppresses cell death caused by drying stimulus	suppresses PLA2 activation caused by drying stimulus
